Laboratory results from patent US10858335B2 (Rigel Pharmaceuticals, Inc., priority 2014, dated 2020).
pIC50: −log10 of the molar value.

System: GDF8 signaling (p-SMAD-3 (Ser423/425))
Experiment: AlphaScreen SureFire SMAD3 (p-Ser423/425) assay, GDF8-stimulated cells (GDF pSMAD)
Format: cell-based
Conditions: Mus musculus, MPC-11, MPC11; GDF8-stimulated; p-SMAD3 AlphaScreen; read-out: GDF pSMAD (MPC11) (inhibition of GDF8 signaling)

| pIC50 | SMILES |
| --- | --- |
| 5.27 | Cc1cc(-c2ncccc2-c2ccc3ncc(CN4CCOCC4)n3c2)ccc1F [compound 569, 4-((6-(2-(4-Fluoro-3-methylphenyl)pyridin-3-yl)imidazo[1,2-a]pyridin-3-yl)methyl)morpholine] |
| 5.23 | Cc1cccc(-c2ncccc2-c2ccc3ncc(CN4CCOCC4)n3c2)c1 [compound 570, 4-((6-(2-(m-Tolyl)pyridin-3-yl)imidazo[1,2-a]pyridin-3-yl)methyl)morpholine] |
| 5.14 | c1cc(-c2ncccc2-c2ccc3ncc(CN4CCOCC4)n3c2)cc(C2CC2)c1 [compound 571, 4-((6-(2-(3-Cyclopropylphenyl)pyridin-3-yl)imidazo[1,2-a]pyridin-3-yl)methyl)morpholine] |
| 5.92 | COc1cc(NC(=O)c2cnc3ccc(-c4cccnc4-c4ccc(F)c(C)c4)cn23)cc(OC)c1OC [compound 573, 6-(2-(4-Fluoro-3-methylphenyl)pyridin-3-yl)-N-(3,4,5-trimethoxyphenyl)imidazo[1,2-a]pyridine-3-carboxamide] |
| 6.07 | COc1cc(NC(=O)c2cnc3ccc(-c4cccnc4-c4cccc(C)c4)cn23)cc(OC)c1OC [compound 574, 6-(2-(m-Tolyl)pyridin-3-yl)-N-(3,4,5-trimethoxyphenyl)imidazo[1,2-a]pyridine-3-carboxamide] |
| 5.93 | COc1cc(NC(=O)c2cnc3ccc(-c4cccnc4-c4cccc(C5CC5)c4)cn23)cc(OC)c1OC [compound 575, 6-(2-(3-Cyclopropylphenyl)pyridin-3-yl)-N-(3,4,5-trimethoxyphenyl)imidazo[1,2-a]pyridine-3-carboxamide] |
| 5.43 | COc1cc(NC(=O)c2cnc3ccc(-c4cccnc4-c4cccc(C(F)(F)F)c4)cn23)cc(OC)c1OC [compound 576, 6-(2-(3-(Trifluoromethyl)phenyl)pyridin-3-yl)-N-(3,4,5-trimethoxyphenyl)imidazo[1,2-a]pyridine-3-carboxamide] |
| 5.65 | COc1cc(-c2cnc3ccc(-c4cccnc4-c4cccc(C)c4)cn23)cc(OC)c1OC [compound 578, 6-(2-(m-Tolyl)pyridin-3-yl)-3-(3,4,5-trimethoxyphenyl)imidazo[1,2-a]pyridine] |
| 4.91 | Cc1cc(-c2ncccc2-c2ccc3ncc(C(=O)O)n3c2)ccc1F [compound 579, 6-(2-(4-Fluoro-3-methylphenyl)pyridin-3-yl)imidazo[1,2-a]pyridine-3-carboxylic acid] |
| 5.07 | Cc1cc(-c2ncccc2-c2ccc3ncc(C(=O)N4CCOCC4)n3c2)ccc1F [compound 580, (6-(2-(4-Fluoro-3-methylphenyl)pyridin-3-yl)imidazo[1,2-a]pyridin-3-yl)(morpholino)methanone] |
| 5.20 | Cc1cc(-c2ncccc2-c2ccc3ncc(C(=O)N4CCN(C)CC4)n3c2)ccc1F [compound 581, (6-(2-(4-Fluoro-3-methylphenyl)pyridin-3-yl)imidazo[1,2-a]pyridin-3-yl)(4-methylpiperazin-1-yl)methanone] |
| 6.31 | COc1ccc(NC(=O)c2cnc3ccc(-c4cccnc4-c4ccc(F)c(C)c4)cn23)cc1OC [compound 582, N-(3,4-Dimethoxyphenyl)-6-(2-(4-fluoro-3-methylphenyl)pyridin-3-yl)imidazo[1,2-a]pyridine-3-carboxamide] |
| 6.29 | CCCNC(=O)c1cnc2ccc(-c3cccnc3-c3ccc(F)c(C)c3)cn12 [compound 583, 6-(2-(4-Fluoro-3-methylphenyl)pyridin-3-yl)-N-propylimidazo[1,2-a]pyridine-3-carboxamide] |
| 7.02 | CNC(=O)c1cnc2ccc(-c3cccnc3-c3ccc(F)c(C)c3)cn12 [compound 584, 6-(2-(4-Fluoro-3-methylphenyl)pyridin-3-yl)-N-methylimidazo[1,2-a]pyridine-3-carboxamide] |
| 6.29 | Cc1cc(-c2ncccc2-c2ccc3ncc(C(=O)NCCN4CCOCC4)n3c2)ccc1F [compound 585, 6-(2-(4-Fluoro-3-methylphenyl)pyridin-3-yl)-N-(2-morpholinoethyl)imidazo[1,2-a]pyridine-3-carboxamide] |
| 6.21 | CC(=O)c1cnc2ccc(-c3cccnc3-c3ccc(F)c(C)c3)cn12 [compound 586, 1-(6-(2-(4-Fluoro-3-methylphenyl)pyridin-3-yl)imidazo[1,2-a]pyridin-3-yl)ethan-1-one] |
| 6.44 | CC(=O)c1cnc2ccc(-c3cccnc3-c3cccc(C)c3)cn12 [compound 587, 1-(6-(2-(m-Tolyl)pyridin-3-yl)imidazo[1,2-a]pyridin-3-yl)ethan-1-one] |
| 6.50 | CC(=O)c1cnc2ccc(-c3cccnc3-c3cccc(C4CC4)c3)cn12 [compound 588, 1-(6-(2-(3-Cyclopropylphenyl)pyridin-3-yl)imidazo[1,2-a]pyridin-3-yl)ethan-1-one] |
| 5.91 | CC(=O)c1cnc2ccc(-c3cccnc3-c3cccc(C(F)(F)F)c3)cn12 [compound 589, 1-(6-(2-(3-(Trifluoromethyl)phenyl)pyridin-3-yl)imidazo[1,2-a]pyridin-3-yl)ethan-1-one] |
| 6.29 | Cc1cc(-c2ncccc2-c2ccc3ncc(C(=O)NCCN4CCN(C)CC4)n3c2)ccc1F [compound 590, 6-(2-(4-Fluoro-3-methylphenyl)pyridin-3-yl)-N-(2-(4-methylpiperazin-1-yl)ethyl)imidazo[1,2-a]pyridine-3-carboxamide] |

| pIC50 | SMILES |
| --- | --- |
| 6.48 | Cc1cc(-c2ncccc2-c2ccc3ncc(C(=O)NCCCN4CCN(C)CC4)n3c2)ccc1F [compound 591, 6-(2-(4-Fluoro-3-methylphenyl)pyridin-3-yl)-N-(3-(4-methylpiperazin-1-yl)propyl)imidazo[1,2-a]pyridine-3-carboxamide] |
| 6.69 | Cc1cc(-c2ncccc2-c2ccc3ncc(C(=O)NC4CCN(C)CC4)n3c2)ccc1F [compound 592, 6-(2-(4-Fluoro-3-methylphenyl)pyridin-3-yl)-N-(1-methylpiperidin-4-yl)imidazo[1,2-a]pyridine-3-carboxamide] |
| 5.73 | Cc1cc(-c2ncccc2-c2ccc3ncc(C(=O)NC4CCOCC4)n3c2)ccc1F [compound 593, 6-(2-(4-Fluoro-3-methylphenyl)pyridin-3-yl)-N-(tetrahydro-2H-pyran-4-yl)imidazo[1,2-a]pyridine-3-carboxamide] |
| 6.24 | Cc1cc(-c2ncccc2-c2ccn3cncc3c2)ccc1F [compound 594, 7-(2-(4-Fluoro-3-methylphenyl)pyridin-3-yl)imidazo[1,5-a]pyridine] |
| 5.94 | Cc1cccc(-c2ncccc2-c2ccn3cncc3c2)c1 [compound 595, 7-(2-(m-Tolyl)pyridin-3-yl)imidazo[1,5-a]pyridine] |
| 6.69 | c1cc(-c2ncccc2-c2ccn3cncc3c2)cc(C2CC2)c1 [compound 596, 7-(2-(3-Cyclopropylphenyl)pyridin-3-yl)imidazo[1,5-a]pyridine] |
| 6.08 | FC(F)(F)c1cccc(-c2ncccc2-c2ccn3cncc3c2)c1 [compound 597, 7-(2-(3-(Trifluoromethyl)phenyl)pyridin-3-yl)imidazo[1,5-a]pyridine] |
| 5.41 | Cc1cc(-c2ncccc2-c2ccc3ncc(C(C)(C)O)n3c2)ccc1F [compound 599, 2-(6-(2-(4-Fluoro-3-methylphenyl)pyridin-3-yl)imidazo[1,2-a]pyridin-3-yl)propan-2-ol] |
| 6.75 | [2H]C([2H])([2H])c1cccc(-c2ncccc2-c2ccc3nccn3c2)c1 [compound 600, 6-(2-(3-(Methyl-d3)phenyl)pyridin-3-yl)imidazo[1,2-a]pyridine] |
| 6.85 | [2H]C([2H])([2H])c1cccc(-c2ncccc2-c2ccc3ncc(C#N)n3c2)c1 [compound 601, 6-(2-(3-(Methyl-d3)phenyl)pyridin-3-yl)imidazo[1,2-a]pyridine-3-carbonitrile] |
| 7.17 | [2H]C([2H])([2H])c1cccc(-c2ncccc2-c2ccn3nccc3n2)c1 [compound 602, 5-(2-(3-(Methyl-d3)phenyl)pyridin-3-yl)pyrazolo[1,5-a]pyrimidine] |
| 6.96 | [2H]C([2H])([2H])c1cccc(-c2ncccc2-c2ccc3ncsc3c2)c1 [compound 603, 6-(2-(3-(Methyl-d3)phenyl)pyridin-3-yl)benzo[d]thiazole] |
| 5.07 | [2H]C([2H])([2H])c1cccc(-c2ncccc2-c2ccn3cncc3c2)c1 [compound 604, 7-(2-(3-(Methyl-d3)phenyl)pyridin-3-yl)imidazo[1,5-a]pyridine] |
| 5.10 | [2H]C([2H])([2H])c1cccc(-c2ncccc2-c2ccc3nccnc3c2)c1 [compound 605, 6-(2-(3-(Methyl-d3)phenyl)pyridin-3-yl)quinoxaline] |
| 6.15 | Cc1cc(-c2ncccc2-c2ccc3ncc(C(=O)NCCN(C)C)n3c2)ccc1F [compound 607, N-(2-(Dimethylamino)ethyl)-6-(2-(4-fluoro-3-methylphenyl)pyridin-3-yl)imidazo[1,2-a]pyridine-3-carboxamide] |
| 6.49 | Cc1cc(-c2ncccc2-c2ccc3ncc(C(=O)NCCCN(C)C)n3c2)ccc1F [compound 608, N-(3-(Dimethylamino)propyl)-6-(2-(4-fluoro-3-methylphenyl)pyridin-3-yl)imidazo[1,2-a]pyridine-3-carboxamide] |
| 6.50 | Cc1cc(-c2ncccc2-c2ccc3ncc(C(=O)NCCCN4CCOCC4)n3c2)ccc1F [compound 609, 6-(2-(4-Fluoro-3-methylphenyl)pyridin-3-yl)-N-(3-morpholinopropyl)imidazo[1,2-a]pyridine-3-carboxamide] |
| 6.19 | Cc1cc(-c2ncccc2-c2ccc3ncc(C(=O)NCCN4CCCC4)n3c2)ccc1F [compound 610, 6-(2-(4-Fluoro-3-methylphenyl)pyridin-3-yl)-N-(2-(pyrrolidin-1-yl)ethyl)imidazo[1,2-a]pyridine-3-carboxamide] |
| 6.94 | Cc1cc(-c2ncccc2-c2ccc3ncc(C(=O)NCCCN4CCCCC4)n3c2)ccc1F [compound 611, 6-(2-(4-Fluoro-3-methylphenyl)pyridin-3-yl)-N-(3-(piperidin-1-yl)propyl)imidazo[1,2-a]pyridine-3-carboxamide] |
